{"source": "patent US7261876B2", "about": "“Multivalent constructs for therapeutic and diagnostic applications” (Bracco International BV, priority 2002, dated 2007)", "key": {"[1]": {"test_system": "SW-480 human colon carcinoma cells", "assay": "In vivo xenograft tumor model", "settings": "Study Day 22; 6.0 mg/kg IV, five doses"}, "[2]": {"test_system": "HUVECs", "assay": "Endothelial cell proliferation assay, BrdU detection", "assay_type": "cell-based, human", "settings": "10 μg/mL, in the presence of VEGF (30 ng/mL)", "description": "Briefly, freshly isolated HUVECs (between p3–6) were cultured in RPMI+10% FCS+1% antibiotics+1% 1-glutamin+0.4% BBE (bovine brain extract) and seeded per well, 5000–10000/well in 100 μL. The cells were allowed to recover for 24 h prior to use. Then the cells were washed with PBS twice and treated for 48 h with anti-VEGF antibody (positive control) or peptides A, B and C (0.1 and 10 ug/mL) in RPMI+0.1% BSA+1% 1-glutamin. The following 6 variables were tested in 2 series (n=4): • Series I: w/o VEGF • Series II: w/VEGF (30 ng/mL) • 1. Standard medium: RPMI+10% FCS+1% antibiotics+1% 1-glutamin+0.4% BBE • 2. Negative control 1: RPMI (true starvation) • 3. Negative control 2: RPMI+0.1% BSA+1% 1-glutamin • 1. Positive control: anti-VEGF 10 μg/ml in RPMI+0.1% BSA+1% 1-glutamin • 5. 0.1 μg/ml KDR peptides in RPMI+0.1% BSA+1% 1-glutamin • 6. […] Note: Background binding was determined by omitting the anti-BrdU antibody in 4 wells with control cells (cultured in complete medium; EBM+BulletKit) and by complete labeling of cells that was not exposed to BrdU."}, "[3]": {"test_system": "VEGF-induced migration of HUVECs", "assay": "HUVEC migration/invasion assay", "assay_type": "cell-based, human"}, "[4]": {"molecular_target": "T1, KDR-transfected 293H cells (Homo sapiens, UniProt P35968)", "T1 construct": "Both PCR products were digested with Not1 and ligated together to create the full-length receptor; V5-His (encoded by the vector); expressed in transfected cells; host or cells: 293H cells (Invitrogen cat. # 11631), transient lipofectamine 2000 transfection", "T1 sequence (P35968 20-1356)": "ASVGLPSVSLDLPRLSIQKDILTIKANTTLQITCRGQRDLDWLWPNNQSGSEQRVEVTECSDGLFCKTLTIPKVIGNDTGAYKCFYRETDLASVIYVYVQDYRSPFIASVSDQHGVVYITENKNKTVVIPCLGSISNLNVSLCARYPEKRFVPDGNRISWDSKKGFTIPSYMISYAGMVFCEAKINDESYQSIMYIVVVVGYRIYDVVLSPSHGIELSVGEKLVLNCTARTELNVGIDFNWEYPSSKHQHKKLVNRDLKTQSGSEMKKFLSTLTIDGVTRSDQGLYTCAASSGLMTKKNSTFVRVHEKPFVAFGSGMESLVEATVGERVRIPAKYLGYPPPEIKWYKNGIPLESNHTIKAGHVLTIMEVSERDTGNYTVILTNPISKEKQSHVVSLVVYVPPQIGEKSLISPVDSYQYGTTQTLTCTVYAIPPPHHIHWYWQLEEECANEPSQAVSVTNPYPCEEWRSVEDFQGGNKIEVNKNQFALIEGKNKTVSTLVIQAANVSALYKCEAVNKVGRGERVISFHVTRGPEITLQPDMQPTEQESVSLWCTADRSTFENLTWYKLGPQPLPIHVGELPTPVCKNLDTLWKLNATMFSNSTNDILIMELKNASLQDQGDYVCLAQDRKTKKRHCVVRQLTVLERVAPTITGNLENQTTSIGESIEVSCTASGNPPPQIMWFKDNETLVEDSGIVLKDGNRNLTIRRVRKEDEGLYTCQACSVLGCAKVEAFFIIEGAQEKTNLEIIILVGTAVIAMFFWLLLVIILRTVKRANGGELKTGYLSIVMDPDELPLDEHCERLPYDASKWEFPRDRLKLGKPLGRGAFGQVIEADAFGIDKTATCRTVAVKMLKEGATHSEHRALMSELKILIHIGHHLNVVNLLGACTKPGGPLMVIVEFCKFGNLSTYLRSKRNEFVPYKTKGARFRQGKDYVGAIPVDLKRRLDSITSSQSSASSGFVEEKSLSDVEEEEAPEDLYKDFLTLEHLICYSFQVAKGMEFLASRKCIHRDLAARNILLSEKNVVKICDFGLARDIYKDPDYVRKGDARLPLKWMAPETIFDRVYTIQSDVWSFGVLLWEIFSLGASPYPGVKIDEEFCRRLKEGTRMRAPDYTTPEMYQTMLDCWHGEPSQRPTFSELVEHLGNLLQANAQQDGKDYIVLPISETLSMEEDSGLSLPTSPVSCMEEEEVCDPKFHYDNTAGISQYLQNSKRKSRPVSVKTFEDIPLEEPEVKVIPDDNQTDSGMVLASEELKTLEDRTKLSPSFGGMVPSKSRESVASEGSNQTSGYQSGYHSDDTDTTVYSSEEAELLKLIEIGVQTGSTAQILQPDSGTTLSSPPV", "assay": "Binding of peptide-conjugated microbubbles to KDR-transfected cells", "assay_type": "cell-based", "description": "293H cells were transfected with KDR cDNA. […] Competition was also performed using a non-binding control peptide as a competing compound.\n293H cells were transfected with KDR cDNA.\nD23 (a dimeric construct of P6- and P12-derived sequences) was conjugated with a preparation of microbubbles as above described, according to the following methodology. The thioacetylated peptide ([…]) was dissolved in 20 μl DMSO and then diluted in 1 ml of Phosphate Buffer Saline (PBS). This solution was mixed to the N-MPB-functionalized microbubbles dispersed in 18 ml of PBS-EDTA 10 mM, pH 7.5 and 2 ml of deacetylation solution (50 mM sodium phosphate, 25 mM EDTA, 0.5 M hydroxylamine.HCl, pH 7.5) was added. The headspace was filled with C4F10/Air (50/50) and the mixture was incubated for 2.5 hours at room temperature under gentle agitation (rotating wheel), in the dark. Conjugated bubbles were washed by centrifugation. Similarly, the monomer peptides making up D23 were separately conjugated to two different microbubble preparations according to the methodology described above."}, "[5]": {"molecular_target": "T2, KDR/VEGF complex (Homo sapiens, UniProt P35968)", "T2 construct": "Both PCR products were digested with Not1 and ligated together to create the full-length receptor; V5-His (encoded by the vector); expressed in transfected cells; host or cells: 293H cells, transiently transfected; VEGF added exogenously", "T2 sequence (P35968 20-1356)": "as above", "T2 sequence (P15692 27-191 isoform P15692-4 partner)": "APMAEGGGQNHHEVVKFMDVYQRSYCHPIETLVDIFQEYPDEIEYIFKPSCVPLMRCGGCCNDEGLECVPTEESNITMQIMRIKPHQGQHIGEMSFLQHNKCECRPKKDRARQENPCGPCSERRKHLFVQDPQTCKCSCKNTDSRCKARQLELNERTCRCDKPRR", "assay": "Cell based assay for binding of KDR/VEGF complex binders (peptide-125I-streptavidin complexes)", "settings": "in the presence of VEGF", "text": "Furthermore, these peptides, as well as other peptides which bind KDR/VEGF complex may advantageously be included in heteromultimers of the invention."}, "[6]": {"molecular_target": "T3, KDR-expressing 293H cells (Homo sapiens, UniProt P35968)", "T3 construct": "Both PCR products were digested with Not1 and ligated together to create the full-length receptor; V5-His (encoded by the vector); expressed in transfected cells; host or cells: 293H cells (Invitrogen cat. # 11631), transient lipofectamine 2000 transfection", "T3 sequence (P35968 20-1356)": "as the sequence (P35968 20-1356) above", "assay": "Bead-binding assay, peptide-conjugated fluorescent beads", "assay_type": "cell-based", "settings": "Neutravidin-coated beads, 40% FBS", "description": "As a positive control, biotinylated anti-KDR antibody was incubated with the Neutravidin-coated beads as above, except that 0.03 mg of the biotinylated antibody preparation in PBS (Gibco 14190-136) was used instead of peptide solution. Beads can be stored at 4° C. until needed for up to 1 week.\n293H cells were transfected using the protocol described in Example 6. Transfection was done in black/clear 96-well plates (Becton Dickinson, cat. # 354640). The cells in one half of the plate (48 wells) were mock-transfected (with no DNA) and those in the other half of the plate were transfected with KDR cDNA. The cells were 80–90% confluent at the time of transfection and completely confluent the next day, at the time of the assay; otherwise the assay was aborted.\nFrom the above bead preparations, 0.12 mL was spun for 10 minutes at 2000 rpm in a microcentrifuge at room temperature. The supernatant was removed and 0.06 mL of MES pH 6.0 was added. Each bead solution was then vortexed and sonicated in a water bath 15 min. To 1.47 mL of DMEM, high glucose (GIBCO 11965-084) with 1×MEM Non-Essential Amino Acids Solution (NEAA) (GIBCO 11140-050) and 40% FBS (Hyclone SH30070.02) 0.03 mL of the sonicated bead preparations was added. 96-well plates seeded with 293H cells which have been mock-transfected in columns 1 to 6, and KDR-transfected in columns 7 to 12 (as described above), were drained and washed once with DMEM, high glucose with 1×NEAA and 40% FBS. To each well was added 0.1 mL of bead solution, six wells per bead preparation. […] After draining, 0.1 mL of PBS was added per well. The plates were then read on a Packard FluoroCount fluorometer at excitation 550 nm/emission 620 nm. Unconjugated Neutravidin beads were used as a negative control while beads conjugated with a biotinylated anti-KDR antibody were used as the positive control for the assay.\nTo calculate the number of beads bound per well, a standard curve with increasing numbers of the same fluorescent beads was included in each assay plate. The standard curve was used to calculate the number of beads bound per well based on the fluorescence intensity of each well."}, "[7]": {"molecular_target": "T4, KDR transfected cells (Homo sapiens, UniProt P35968)", "T4 construct": "Both PCR products were digested with Not1 and ligated together to create the full-length receptor; V5-His (encoded by the vector); expressed in transfected cells; host or cells: 293H cells (Invitrogen cat. # 11631), transient lipofectamine 2000 transfection", "T4 sequence (P35968 20-1356)": "as above", "assay": "Competition of free peptides with P5-XB/avidin HRP complex (Experiment E)", "assay_type": "binding", "settings": "P5-XB/avidin HRP 3.33 nM; free peptide 0–[…]", "text": "If the peptides bind to the same site on KDR, they would likely compete with each other for binding to KDR, whereas if the peptides bind to different sites, there should be no competition between the peptides for binding to KDR."}, "[8]": {"molecular_target": "T5, KDR expressed by transfected 293H cells (Homo sapiens, UniProt P35968)", "T5 construct": "Both PCR products were digested with Not1 and ligated together to create the full-length receptor; V5-His (encoded by the vector); expressed in transfected cells; host or cells: 293H cells (Invitrogen cat. # 11631), transient lipofectamine 2000 transfection", "T5 sequence (P35968 20-1356)": "as above", "assay": "Competition with 125I-labeled VEGF for binding to KDR-transfected 293H cells"}, "[9]": {"molecular_target": "T6, KDR-expressing cells (Homo sapiens, UniProt P35968)", "T6 construct": "Both PCR products were digested with Not1 and ligated together to create the full-length receptor; V5-His (encoded by the vector); expressed in transfected cells; host or cells: 293H cells (Invitrogen cat. # 11631), transient lipofectamine 2000 transfection", "T6 sequence (P35968 20-1356)": "as above", "assay": "Displacement assay competing with P12-XB/streptavidin-HRP complex for binding to KDR-expressing cells", "settings": "complex concentration 5.5 nM"}, "[10]": {"molecular_target": "T1, KDR-transfected 293H cells", "assay": "Binding of radiolabeled (Tc, I, Lu) peptides to KDR-transfected 293H cells"}}, "note": "“Also recorded” adds a separate entry of the source. No end group written: not given here."}
{"compound": "N.N.[Cl][Pt][Cl]", "note": "[Cisplatin]", "values": [{"measurement": "mean tumor weight", "setting": "[1]", "result": 995, "unit": "mg"}]}
{"compound": "CC(=O)N[C@@H](C)C(=O)NCC(=O)N1CCC[C@H]1C(=O)N[C@H](C(=O)N[C@@H](Cc1c[nH]c2ccccc12)C(=O)N[C@H]1CSSC[C@@H](C(=O)N[C@@H](Cc2c[nH]c3ccccc23)C(=O)N[C@@H](CC(C)C)C(=O)N[C@@H](Cc2ccccc2)C(=O)NCC(=O)N[C@H](C(=O)NCC(=O)NCC(=O)NCC(=O)N[C@@H](CCCCN)C(N)=O)[C@@H](C)O)NC(=O)[C@H](Cc2ccc(O)cc2)NC(=O)[C@H](Cc2ccc(O)cc2)NC(=O)[C@H](Cc2c[nH]c3ccccc23)NC(=O)[C@H](CC(=O)O)NC(=O)[C@H](CC(=O)O)NC(=O)[C@H](CCC(=O)O)NC1=O)[C@@H](C)O", "note": "[P12-G, Ac-AGPTWC*EDDWYYC*WLFGT-GGGK-NH2]", "values": [{"measurement": "inhibition of HUVEC proliferation", "setting": "[2]", "result": "does not inhibit proliferation"}]}
{"compound": "CC(C)c1cc(/C=C(\\C#N)C(=O)NCCCc2ccccc2)cc(C(C)C)c1O", "note": "[SU1498, (E)-3-(3,5-Diisopropyl-4-hydroxyphenyl)-2-[(3-phenyl-n-propyl)aminocarbonyl]acrylonitrile]", "values": [{"measurement": "VEGF-induced migration blocked", "setting": "[3]; 3 micromolar", "result": 47, "unit": "%"}]}
{"compound": "AGPTWCEDDWYYCWLFGT [P12]", "values": [{"measurement": "competition of conjugated microbubbles by free peptide", "setting": "[4]; Experiment A, free peptide 100 μM to 3 nM", "result": "competed off by the corresponding free KDR-specific peptide"}]}
{"compound": "Ac-AGMPWCVEKDHWDCWWWGTGGGK(Biotin-JJ)-NH2 [P31-XB]", "values": [{"measurement": "specific binding of peptide-125I-streptavidin complex (KDR-mock)", "setting": "[5]", "result": "Only the complex containing P30-XB showed specific binding"}]}
{"compound": "Ac-AGPGPCKGYMPHQCWYMGTGGGK(Biotin-JJ)-NH2 [P30-XB]", "values": [{"measurement": "specific binding of peptide-125I-streptavidin complex (KDR-mock)", "setting": "[5]", "result": "specifically bound to KDR-transfected 293H cells; also recorded: showed specific binding"}]}
{"compound": "Ac-AGPKWC*EEDWYYC*MITGT-GGGK-(Biotin)-NH2 [P5-B]", "values": [{"measurement": "binding of ligand-coated fluorescent beads to KDR-transfected vs mock-transfected cells", "setting": "[6]", "result": "did not bind to the KDR-transfected cells significantly more than to mock-transfected cells"}]}
{"compound": "Ac-AGPKWC*EEDWYYC*MITGTGGGK-(Biotin-JJ-)-NH2 [P5-XB]", "values": [{"measurement": "competition with P5-XB/avidin HRP solution for binding", "setting": "[7]", "result": "does compete"}, {"measurement": "percentage inhibition of 125I-labeled VEGF binding", "setting": "[8]; 0.3 μM peptide", "result": "24.41±8.43", "unit": "%"}, {"measurement": "percentage inhibition of 125I-labeled VEGF binding", "setting": "[8]; 30 μM peptide", "result": "47.95±5.09", "unit": "%"}, {"measurement": "binding of ligand-coated fluorescent beads to KDR-transfected vs mock-transfected cells", "setting": "[6]", "result": "Specific binding to KDR was detected"}]}
{"compound": "Ac-AGYGPCKNMPPWMCWHEGTGGGK(Biotin-JJ)-NH2 [P32-XB]", "values": [{"measurement": "specific binding of peptide-125I-streptavidin complex (KDR-mock)", "setting": "[5]", "result": "Only the complex containing P30-XB showed specific binding"}]}
{"compound": "Ac-DWYYGGGK-NH2 [F1]", "values": [{"measurement": "inhibition of P12-XB streptavidin-HRP complex binding", "setting": "[9]", "result": "IC50 below one micromolar"}]}
{"compound": "Ac-ERVTTCWPGEYGGVECYSVAY-NH2 (cysteine pairing not given here) [PG-1, reference compound]", "values": [{"measurement": "VEGF-stimulated migration", "setting": "[3]; up to 62.5 nM", "result": "had no effect on VEGF-stimulated migration"}, {"measurement": "competition with 125I-VEGF for binding to KDR-transfected cells", "setting": "[8]", "result": "competed about equally well"}]}
{"compound": "Ac-GDSRVC*WEDSWGGEVC*FRYDP-GGGK-(Biotin)-NH2 [P6-B]", "values": [{"measurement": "binding of ligand-coated fluorescent beads to KDR-transfected vs mock-transfected cells", "setting": "[6]", "result": "showed greater binding to KDR-transfected cells"}]}
{"compound": "Ac-GDSRVC*WEDSWGGEVC*FRYDPGGGK-(Biotin-JJ-)-NH2 [P6-XB]", "values": [{"measurement": "competition with P5-XB/avidin HRP solution for binding", "setting": "[7]", "result": "do not compete"}]}
{"compound": "GDSRVCWEDSWGGEVCFRYDP [P6]", "values": [{"measurement": "binding of conjugated microbubbles", "setting": "[4]; Experiment C, 50% human serum", "result": "bound poorly"}, {"measurement": "binding of ligand-coated fluorescent beads to KDR-transfected vs mock-transfected cells", "setting": "[6]", "result": "Specific binding to KDR was detected"}]}
{"compound": "Tc-labeled D18: 99mTc-labeled scrambled dimer D18 (peptide 1 APGTWCDYDWEYCWLGTFGGGK; peptide 2 GVDFRCEWSDWGEVGCRSPDYGGGK; not fully specified (bridges); cysteine pairing not given here; also: 99mTc label, site not given here, heterodimer, linkage not given here)", "values": [{"measurement": "binding of radiolabeled compound to KDR transfected vs mock transfected 293H cells", "setting": "[10]", "result": "displayed no affinity for either mock-transfected or KDR-transfected 293H cells"}]}
